Experimental data as given in patent US9453026B2, “ACC inhibitors and uses thereof” (Gilead Apollo, Inc., priority 2011, dated 2016).

Assays:
[1] = tested on: fatty acid synthesis; assay: In Vivo Fatty Acid Synthesis Study ([C14]-acetate incorporated into rat liver tissue); settings: oral, FIG. 8 and FIG. 16
Experimental: Compounds of the present invention were also assayed in an In Vivo Fatty Acid Synthesis Study as described by Harwood et al. “Isozyme-nonselective N-Substituted Bipiperidylcarboxamide Acetyl-CoA Carboxylase Inhibitors Reduce Tissue Malonyl-CoA Concentrations, Inhibit Fatty Acid Synthesis, and Increase Fatty Acid Oxidation in Cultured Cells and in Experimental Animals” Journal of Biological Chemistry (2008) 278, 37099-37111. An exemplary procedure for the assay, which measures the amount of radioactive [C^14]-acetate incorporated into rat liver tissue, follows.
Animals given food ad water ad libitum were treated orally at a volume of 1.0 mL/200 g body weight (rat) with either an aqueous solution containing 0.5% methylcellulose (vehicle), or an aqueous solution containing 0.5% methylcellulose plus test compound. One to four hours after compound administration, animals received an intraperitoneal injection of 0.5 mL of [C^14]-acetate (64 uCi/mL; […]). […] The pooled organic fractions were transferred to liquid scintillation vials, dried under nitrogen, dissolved in 7 mL of Aquasol liquid scintillation fluid, and assessed for radioactivity using a Beckman 6500 liquid scintillation counter. Results were recorded as disintigrations per minute (DPM) per milligram of tissue.

[2] = tested on: HepG2 cells; assay: [14C] Acetate Incorporation HepG2 Cellular Assay; format: cell-based; settings: Hep-G2 cells, FIG. 7
Experimental: Compounds of the present invention were evaluated in a [^14C] Acetate Incorporation Assay. An exemplary procedure for the assay, which measures the incorporation of isotopically labeled acetate into fatty acids, follows. HepG2 cells were maintained in T-75 flasks containing DMEM supplemented with 2 mM 1-glutamine, penicillin G (100 units/ml), streptomycin 100 μg/ml with 10% FBS and incubated in a humidified incubator with 5% CO2 at 37° C. Cells were fed every 2-3 days. On Day 1. cells were seeded in 24 well plates at a density of 1.2×10^5 cells/ml/well with the growth medium. On Day 3 the medium was replaced with fresh medium containing 10% FBS. On Day 4 the medium was replaced with 0.5 ml of fresh medium containing test compound (in DMSO; final [DMSO] is 0.5%) and the cells were incubated at 37° C. for 1 hour. To one copy of plate, 4 ul of [2-^14C]acetate (56 mCi/mmol; 1 mCi/ml; PerkinElmer) was added and the cells were incubated at 37° C., 5% CO2 for 5 hrs. To a second copy of plate, 4 ul of cold acetate were added and the cells were incubated at 37° C., 5% CO2 for 5 hrs. This plate was used for protein concentration measurement. Medium was removed and placed in a 15 ml centrifuge tube (BD, Falcon/352096). Cells were rinsed with 1 ml PBS, then aspirated, and the rinse and aspiration steps were repeated. 0.5 ml of 0.1N NaOH were added to each well and let sit at RT to dissolve cell monolayer. The remaining cell suspension was pooled with medium. For the protein determination plate, an aliquot was removed for protein determination (25 ul). […] 5 ml petroleum ether was added per tube, shaken vigorously, centrifuged at 1000 rpm for 5 min, and 500 uL of the petroleum ether layer was transferred to tubes for Microbeta reading, then 2 ml Aquasol-2 were added to each tube, the tubes were shaken and counted with a Microbeta Liquid Scintillation Counter (Perkin Elmer).
The remaining petroleum ether layer was discarded and the aqueous phase reserved for fatty acid extractions. […] 2 ml of Aquasol-2 was added to each vial, and the vials were shaken and counted on a scintillation counter.

## COc1ccccc1[C@H](Cn1c(=O)n(C(C)(C)C(=O)O)c(=O)c2c(C)c(-c3ncco3)sc21)OC1CCOCC1 [I-181, 2-[1-[2-(2-methoxyphenyl)-2-(oxan-4-yloxy)ethyl]-5-methyl-6-(1,3-oxazol-2-yl)-2,4-dioxo-1H,2H,3H,4H-thieno[2,3-d]pyrimidin-3-yl]-2-methylpropanoic acid]
[1]
  ED50, fatty acid synthesis in rats: less than 0.3 mg/Kg body weight
[2]
  incorporation of isotopically labeled acetate into fatty acids: inhibit incorporation of isotopically labeled acetate into fatty acids
